Results published in patent US20260132123A1, “ABAD INHIBITOR COMPOUNDS” (UNIVERSITY COURT OF THE UNIVERSITY OF ST ANDREWS, priority 2021, published 2026).

Assays:
17β-HSD10 [1] = target: T1, 17β-HSD10 (Homo sapiens, UniProt Q99714); assay: 17β-HSD10 (ABAD) enzyme inhibition assay, NADH oxidation read at 340 nm (primary screen and dose response); format: biochemical; conditions: for EC50 / Max. Effect (%) / Hill Slope / Max. Fit / Min. Fit: recombinant 17βHSD10 enzyme assay; for Hill Slope / Max. Fit / Min. Fit: curve fit
T1 construct: Histev (histidine tag with TEV site) (N, cleaved yes); made in house; host or cells: E. coli BL21-CodonPlus
T1 sequence (Q99714 1-261): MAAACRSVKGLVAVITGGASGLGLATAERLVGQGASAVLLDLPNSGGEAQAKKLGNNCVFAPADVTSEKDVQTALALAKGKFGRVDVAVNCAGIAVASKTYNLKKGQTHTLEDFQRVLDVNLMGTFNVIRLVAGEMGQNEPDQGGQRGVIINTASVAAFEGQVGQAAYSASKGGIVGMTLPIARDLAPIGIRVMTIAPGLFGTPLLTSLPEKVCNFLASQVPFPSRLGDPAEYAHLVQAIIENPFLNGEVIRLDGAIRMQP
In short: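 Tag-cleaved recombinant human 17β-HSD10 (2.5 nM) preincubated 15 min with compound in Tris pH 7.4, NaCl, DTT, Tween, BSA (catalase in some runs), then 100 μM acetoacetyl-CoA and NADH added. NADH oxidation by A340 fall: 35 min endpoint for screening at 10 μM; continuous 45 min for dose response.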

[2] = target: T2, 17β-HSD10 in HEK293 mts17β-HSD10 cells (Homo sapiens, UniProt Q99714); assay: (-)-CHANA enzyme activity cell based assay; conditions: cellular 17β-HSD10, HEK 293 cells, (-)-CHANA probe
T2 construct: expressed in transfected cells; host or cells: HEK293
T2 sequence (Q99714 1-261): T1 sequence (Q99714 1-261)
Protocol: HEK293 mts17β-HSD10 cells were seeded at a density of 10,000 cells per well (100 μL, 96 well black plates) in phenol-red free media (10% FBS, 1 mM sodium pyruvate, 100 units penicillin, 0.1 mg/mL streptomycin and 2 mM L-glutamine). After 24 hours the media was removed from the cells and replaced with fresh media containing varying concentrations of compound (100 μM-0.098 μM). The fluorogenic probe (-)-CHANA was then added to each well to give a final assay concentration of 20 μM. Fluorescence was immediately measured using a FLUOstar Optima microplate reader (excitation=380 nm, emission=520 nm, orbital averaging=3 mm) and the initial reaction monitored for 3-4 hours. IC50 was calculated from the control-subtracted triplicates using non-linear regression (four parameters) of GraphPad Prism 5 software. Final IC50 and SEM value was obtained as a mean of at least 3 independent measurements.
REF: (-)-CHANA, a Fluorogenic Probe for Detecting Amyloid Binding Alcohol Dehydrogenase HSD10 Activity in Living Cells Kirsty E. A. Muirhead, Mary Froemming, Xiaoguang Li, Kamil Musilek, Stuart J. Conway, Dalibor Sames, and Frank J. Gunn-Moore ACS Chemical Biology 2010 5 (12), 1105-1114DOI: 10.1021/cb100199m) to monitor the oxidative activity of 17β-HSD10 in living cells. […]

[3] = Mouse hepatocyte stability; format: in vitro ADME; set-up: k: unit not given here; conditions: for Heps Category: hepatocyte metabolism category, mouse; for Cl: clearance; for k: k=absorption rate constant (so in the source)
Source text: Table 5: Initial mouse hepatocyte stability and plasma protein binding experiments were undertaken on some of the best exemplars from the representative series with AG18051 a previously published 17β-HSD10 inhibitor (C. R. Kissinger et al., J. Mol. Biol., 342 (2004), p. 943; Lim, Y.-A., Grimm, A., Giese, M. PLoS ONE (2011), 6, e28887.) Ref: shown for comparison. Where k=absorption rate constant Cl=clearance, T1/2=half-life, Heps=hepatocyte metabolism, PPB=plasma protein binding.

17β-HSD10 [4] = target: T1, 17β-HSD10; assay: Thermal shift analysis; format: binding; conditions: 20 μM compound, 1 mM NADH
Protocol: Solutions containing compound at two concentrations (25 μM and 100 μM) added to assay buffer (50 mM Hepes, 0.5 M NaCl, pH 8.2, SYPRO orange 20 X, ±1 mM NADH) were plated in triplicate (25 μl per well) in MicroAmp 96-well plates (Thermo Fisher: 4346907). The plates were then sealed with optical grade sealing film (Thermo Fisher: 4311971) and loaded into a ViiA 7 RT-PCR machine ((Thermo Fisher: 4453534) (ramp speed 0.015° C./sec, 25-95° C.)). Data was exported to GraphPad PRISM and Tm values were calculated using the Boltzmann sigmoidal curve fit equation.
The ΔTm for one compound from each series is presented in FIG. 9 with a representative derivative plot of ESC1002033 and ESC1002082 in FIG. 9a.

17β-HSD10 [5] = target: T1, 17β-HSD10; assay: Mechanism of action against the substrates NADH and AcetoAcetyl CoA; format: biochemical
Protocol: To determine the kinetics for acetoacetyl-CoA and the effect of 17β-HSD10 concentration upon reaction rate, a matrix titration experiment was set up. Previously determined conditions were used with a fixed concentration of 700 μM NADH and a starting concentration of up to 200 μM acetoacetyl-CoA. Doubling dilutions of acetoacetyl-CoA were then coupled with doubling dilutions of 17β-HSD10, which started with a maximum concentration of 40 nM. Data collected from the experiment was analysed using a standard template, from which reaction progress curves were analysed to calculate initial velocities and obtain Km values using the Michaelis-Menten equation (XLFit, ID Business Solutions).
To determine the kinetics for NADH and the effect of 17β-HSD10 concentration upon reaction rate a matrix titration experiment was set up. Previously determined conditions (Aitken et al. 2017, supra) were used, 120 μM acetoacetate and a starting concentration of up to 1000 μM NADH. Doubling dilutions of NADH were then coupled with doubling dilutions of 17β-HSD10, which started with a maximum concentration of 40 nM. Data were analysed as described previously (Aitken et al. 2017, supra).
Two compounds, ESC1002033 and ESC1002082, representative of the two different clusters were investigated for their mechanism of action against the substrates, NADH and AcetoAcetyl CoA (AcAc). The ESC inhibitors were tested as 12-point 1 in 1.5 dilution series with a maximal concentration of 2.5 μM.

[6] = tested on: SH-SY5Y (neuroblastoma cells); conditions: cited from earlier work

| IC50 (17β-HSD10 [1]; Table 5, read-out: Mean ABAD pIC50 (converted)) [nM] | fold improvement in activity / potency (17β-HSD10 [1]; relative to the parent compound of the sentence) [fold] | EC50 [2] [nM] | Heps Category [3] | Cl ([3]; mouse hepatocytes) [ml/minute/g liver] | half-life ([3]; mouse hepatocytes, half-life) [min] | k ([3]; mouse hepatocytes) | T1/2 ([3]; mouse hepatocytes, half-life) [min] | Structure (SMILES) | EC50 (17β-HSD10 [1]) [nM] | Max. Effect (%) (17β-HSD10 [1]) | Hill Slope (17β-HSD10 [1]) | Max. Fit (17β-HSD10 [1]) | Min. Fit (17β-HSD10 [1]) | Mean ABAD pIC50 (17β-HSD10 [1]; Table 5) | ΔTm at 20 µM (17β-HSD10 [4]) [°C] | mode of binding with respect to NADH (17β-HSD10 [5]; AcAc in excess at 800 μM) | mode of binding with respect to AcAc (17β-HSD10 [5]; excess of 100 μM NADH) | protection from Aβ mediated cytotoxicity [6] |
| --- | --- | --- | --- | --- | --- | --- | --- | --- | --- | --- | --- | --- | --- | --- | --- | --- | --- | --- |
| 18.6 | 40 | 28 | High | 105.8 | 3.14 | 0.22 |  | O=C(c1sccc1Cl)N1CCC[C@H]1c1ccccc1-c1cccc(O)c1 (single isomer, unassigned) [ESC1002755] | 20 | 95 | 1 | 93 | −2 |  |  |  |  |  |
|  |  |  | High | 50.5 |  | 0.11 | 6.58 | O=C(C(c1ccccc1)n1cnc2[nH]ncc2c1=S)N1CCCCCC1 (centres unmarked) [AG18051, reference compound] |  |  |  |  |  |  |  |  |  | protect cultured SH-SY5Y cells from Aβ mediated cytotoxicity |

| Structure (SMILES) | IC50 (17β-HSD10 [1]; Table 5, read-out: Mean ABAD pIC50 (converted)) [nM] | fold improvement in activity / potency (17β-HSD10 [1]; relative to the parent compound of the sentence) [fold] | EC50 [2] [nM] | Heps Category [3] | Cl ([3]; mouse hepatocytes) [ml/minute/g liver] | half-life ([3]; mouse hepatocytes, half-life) [min] | k ([3]; mouse hepatocytes) | T1/2 ([3]; mouse hepatocytes, half-life) [min] | EC50 (17β-HSD10 [1]) [nM] | Max. Effect (%) (17β-HSD10 [1]) | Hill Slope (17β-HSD10 [1]) | Max. Fit (17β-HSD10 [1]) | Min. Fit (17β-HSD10 [1]) | Mean ABAD pIC50 (17β-HSD10 [1]; Table 5) | ΔTm at 20 µM (17β-HSD10 [4]) [°C] | mode of binding with respect to NADH (17β-HSD10 [5]; AcAc in excess at 800 μM) | mode of binding with respect to AcAc (17β-HSD10 [5]; excess of 100 μM NADH) | protection from Aβ mediated cytotoxicity [6] |
| --- | --- | --- | --- | --- | --- | --- | --- | --- | --- | --- | --- | --- | --- | --- | --- | --- | --- | --- |
| CC(C)CN(C(=O)c1ccccc1F)c1cccc(N(C)Cc2cnc[nH]2)c1 [ESC1002033, 2-fluoro-N-[3-[1H-imidazol-5-ylmethyl(methyl)amino]phenyl]-N-isobutyl-benzamide] |  |  |  | Mod | 6.2 |  | 0.013 |  | 200 | 99 | 1 | 99 | −3 | 6.7 | 6.75 | non-competitively | competitively |  |
